Measured values from US10942183B2, “Methods of detecting progesterone receptor and of detecting an expression level” (REGENTS OF THE UNIVERSITY OF MINNESOTA, priority 2017, dated 2021).

Legend:
[1] = tested on: PR Ser294 phosphorylation; test: PR Ser294 phosphorylation in T47D cells (Western blotting, immunofluorescence); type: cell-based, human; details: T47D cells expressing WT or KR PR; for PR Ser294 phosphorylation, ligand alone: 1 hour; for PR Ser294 phosphorylation in the presence of progesterone (co-treatment): progesterone plus antiprogestin
Description: T47D human breast cancer cell lines engineered to stably express PR variants (null, WT, K388R, or S294A) were previously described (Knutson et al. Breast Cancer Res 2012, 14:R9). T47D cells were maintained in complete minimal essential medium (cMEM) supplemented with 5% fetal bovine serum (FBS), 1% non-essential amino acids (NEAA), 1% penicillin/streptomycin, 6 ng/ml insulin (CellGro, Manassas, Va., USA, catalog #10-010-CV). T47D cells described above were engineered to also stably express RUNX2 shRNAs via the pLKO.1 knockdown expression vector system, which required 25 μg/ml puromycin for the vector. In various experiments, cells or explants were treated with E2, ICI 182 780, R5020, mifepristone, aglepristone, or onapristone (Arno Therapeutics, Inc., Flemington, N.J.).
Immunocytochemistry was performed on T47D cells expressing PR variants to measure total- and phospho-Ser294 PR levels. 500,000 cells were grown on coverslips in 6-well plates, starved in IMEM plus 5% charcoal stripped FBS, treated, and fixed with 4% paraformaldehyde for 20 min. The cells were permeabilized with 0.3% Triton-X100 before incubating with total-PR (clone Ab8, ThermoFisher Scientific, Waltham, Mass.) or custom phospho-Ser294-PR (clone 8508) antibodies. Cells were incubated with fluorescent secondary antibodies (Alexa Fluor 488) and DAPI mounting medium (Life Technologies, ThermoFisher Scientific, Waltham, Mass.) before visualizing on a Zeiss microscope with A4 and L5 filter cubes. Immunoblotting was performed as previously described (Daniel et al. Mol Endocrinol 2007, 21:2890-2906).
In addition, extensive luminal breast cancer heterogeneity may limit the ability to observe a subset of PR-driven breast cancers without patient selection. In this case, PR target gene expression may provide an accurate means of predicting which breast tumors are likely to be influenced by PR-driven biological pathways enacted by active phospho-Ser294 PRs. To probe changes in PR target gene expression in the presence or absence of commonly used PR ligands (R5020, RU486), including diverse antiprogestins (aglepristone, onapristone) currently in development for clinical use, the well characterized model system of T47D breast cancer cells, stably expressing either unmodified wild-type (WT) PR-B or a transcriptionally hyperactive form of deSUMOylated K388R PR-B (KR; this receptor faithfully mimics phosphorylated PR-B with regard to target gene selection) were used (Knutson et al. Pharmacology & therapeutics 2014, 142:114-125; Daniel et al. Mol Endocrinol 2007, 21:2890-2906). Whether the antiprogestins mifepristone (also called RU486), aglepristone, or onapristone alter PR Ser294 phosphorylation were tested in these T47D breast cancer models. Cells were treated for 1 hour with vehicle, progesterone, mifepristone, aglepristone, or onapristone and whole cell lysates were processed for Western blotting or immunofluorescence (IF) analysis (FIG. 4A, B). […] Greater loss of total KR PR protein was also apparent in the presence of progesterone and selected antiprogestins relative to liganded WT PR, consistent with increased turnover of deSUMOylated active receptors relative to intact WT PRs.

[2] = tested on: PR target gene expression; test: Global gene expression analysis (Illumina HT-12v4) in T47D cells expressing WT or K388R PR-B; type: cell-based, human; details: for regulation of PR target genes in cells expressing KR PR: T47D KR PR
Description: For genome-wide microarray expression analysis, T47D cells expressing pIRES-neo3 empty vector, WT PR, or K388R PR were serum starved in modified improved minimum essential media (IMEM) (Gibco, ThermoFisher Scientific, Waltham, Mass.) for one day before treatment. Eight groups were treated with vehicle control, progesterone (10^−8 M), mifepristone (10^−7 M), aglepristone (10^−7 M), onapristone (10^−7 M), or combined treatment of progesterone+mifepristone, progesterone+aglepristone, or progesterone+onapristone for six hours before RNA extraction using a RNeasy kit (QIAgen). DNase I treated (QIAgen) RNA samples from triplicate experiments were prepared for expression analysis using the Illumina HT-12v4 bead chip platform according to standard protocols. Raw data from agonist-treated cells (progesterone or R5020) collected from two identically performed independent experiments (from this study and a previous study: GSE34148 (Knutson et al. Breast Cancer Res 2012, 14:R95)) was combined, normalized, and batch-corrected to ensure that gene expression values were informative across samples from separate experiments. Data were analyzed within multiple common R (R Core Team: R: A language and environment for statistical computing. R Foundation for Statistical Computing, Vienna, Austria 2015, [available on the world wide web at r-project.org/]) and Bioconductor (Gentleman et al. Genome Biol 2004, 5:R80) packages. Raw intensities were log 2 transformed and quantile normalized using lumi (Du et al. Bioinformatics 2008, 24:1547-1548), batch corrected using sva (Leek et al.: sva: Surrogate Variable Analysis. R package version 3.18.0.), and multiple probes for a single gene were collapsed using genefilter (Gentleman et al.: genefilter: genefilter: methods for filtering genes from high-throughput experiments. R package version 1.52.1). Differentially expressed genes (pairwise comparisons between all eight groups) were analyzed in limma (Smyth: Limma: linear models for microarray data. In: Bioinformatics and computational biology solutions using R and Bioconductor. edn.: Springer; 2005: 397-420), where empirical Bayes was used to better estimate the variance of the genes. Biological comparisons (for example, R5020/vehicle) were presented as log 2 fold change including the Benjamini and Hochberg (BH) adjusted P value (Benjamini et al. J Roy Stat Soc B Met 1995, 57:289-300) to account for multiple hypothesis testing. Expression data is available in the GEO database, accession: GSE94363.
Normalized gene expression data were filtered to isolate only high variance genes using the bioconductor package genefilter (Gentleman et al.: genefilter: genefilter: methods for filtering genes from high-throughput experiments. In., R package version 1.50.0 edn: R package version 1.50.0) using interquartile range cutoff value of 0.85. Non-negative matrix factorization (NMF) was performed within R using the NMF package version 0.20.5 (Gaujoux et al. BMC bioinformatics 2010, 11:367) where matrix factors were rank (2-10) and algorithm (brunet or snmf/r) optimized using the nmf function with parameters nrun=30 and seed=123456. […] Clustering and plots were performed in R (NMF package, a heat map function) using Euclidean distance and UPGMA (average) linkage.
PR ligand-mediated promoter selectivity remains understudied, especially in the context of antiprogestins and posttranslationally modified PR species. […]

Structure (SMILES)	PR Ser294 phosphorylation, ligand alone [1]	PR Ser294 phosphorylation in the presence of progesterone (co-treatment) [1]	regulation of PR target genes in cells expressing KR PR ([2]; antiprogestin 10^-7 M, 6 hours)	regulation of PR target genes in cells expressing WT PR ([2]; T47D WT PR, antiprogestin 10^-7 M, 6 hours)	PR transcriptional activity (hierarchical clustering of regulated genes) ([2]; T47D WT or KR PR, compared with PR-null cells)
CC#C[C@]1(O)CC[C@H]2[C@@H]3CCC4=CC(=O)CCC4=C3[C@@H](c3ccc(N(C)C)cc3)C[C@@]21C [mifepristone]	stimulated robust PR Ser294 phosphorylation	also induced Ser294 phosphorylation	substantially regulate multiple genes in cells expressing KR PR		
CN(C)c1ccc([C@H]2C[C@]3(C)[C@@H](CC[C@]3(O)CCCO)[C@@H]3CCC4=CC(=O)CCC4=C32)cc1 [onapristone]	had no effect on PR Ser294 phosphorylation	blocked Ser294 phosphorylation in the presence of progesterone	does not substantially regulate PR target genes in either cell line	does not substantially regulate PR target genes in either cell line	effectively inhibited PR (either WT or KR) transcriptional activity comparable to the level found in PR-null (control) cells
CC(=O)[C@H]1CC[C@H]2[C@@H]3CCC4=CC(=O)CC[C@]4(C)[C@H]3CC[C@]12C [progesterone]	stimulated PR Ser294 phosphorylation				
